How the values were obtained:
Assay in all cases: KINOMEscan competition binding
Conditions in all cases: compound 0.5 µM
AKT2 (human) = AKT2 (human) (UniProt P31751)
CAMK4 (human) = CAMK4 (human) (UniProt Q16566)
CDKL5 (human) = CDKL5 (human) (UniProt O76039)
CHEK1 (human) = CHEK1 (human) (UniProt O14757)
CSNK2A1 (human) = CSNK2A1 (human) (UniProt P68400)
DSTYK (human) = DSTYK (human) (UniProt Q6XUX3)
EPHA3 (human) = EPHA3 (human) (UniProt P29320)
EPHA4 (human) = EPHA4 (human) (UniProt P54764)
ERBB2 (human) = ERBB2 (human) (UniProt P04626)
ERBB3 (human) = ERBB3 (human) (UniProt P21860)
FGFR1 (human) = FGFR1 (human) (UniProt P11362)
FGR (human) = FGR (human) (UniProt P09769)
[1] = system: FLT3 (human), P36888 [ITD]
[2] = system: FLT3 (human), P36888 [N841I]
INSR (human) = INSR (human) (UniProt P06213)
MAK (human) = MAK (human) (UniProt P20794)
MAP3K11 (human) = MAP3K11 (human) (UniProt Q16584)
MAP3K9 (human) = MAP3K9 (human) (UniProt P80192)
MAP4K3 (human) = MAP4K3 (human) (UniProt Q8IVH8)
MAPK9 (human) = MAPK9 (human) (UniProt P45984)
MARK2 (human) = MARK2 (human) (UniProt Q7KZI7)
MATK (human) = MATK (human) (UniProt P42679)
MINK1 (human) = MINK1 (human) (UniProt Q8N4C8)
MST4 (human) = MST4 (human) (UniProt Q9P289)
MUSK (human) = MUSK (human) (UniProt O15146)
NEK7 (human) = NEK7 (human) (UniProt Q8TDX7)
PAK3 (human) = PAK3 (human) (UniProt O75914)
PAK4 (human) = PAK4 (human) (UniProt O96013)
PAK7 (human) = PAK7 (human) (UniProt Q9P286)
PHKG1 (human) = PHKG1 (human) (UniProt Q16816)
PHKG2 (human) = PHKG2 (human) (UniProt P15735)
PTK2B (human) = PTK2B (human) (UniProt Q14289)
[3] = system: RET (human), P07949 [V804M]
RPS6KA1 KD2 (human) = RPS6KA1 KD2 (human) (UniProt Q15418)
SLK (human) = SLK (human) (UniProt Q9H2G2)
SRMS (human) = SRMS (human) (UniProt Q9H3Y6)
SRPK1 (human) = SRPK1 (human) (UniProt Q96SB4)
SRPK3 (human) = SRPK3 (human) (UniProt Q9UPE1)
STK38 (human) = STK38 (human) (UniProt Q15208)
STK38L (human) = STK38L (human) (UniProt Q9Y2H1)
STK39 (human) = STK39 (human) (UniProt Q9UEW8)
TAOK3 (human) = TAOK3 (human) (UniProt Q9H2K8)

Chain of MAK (human) (P20794 whole entry, looked up): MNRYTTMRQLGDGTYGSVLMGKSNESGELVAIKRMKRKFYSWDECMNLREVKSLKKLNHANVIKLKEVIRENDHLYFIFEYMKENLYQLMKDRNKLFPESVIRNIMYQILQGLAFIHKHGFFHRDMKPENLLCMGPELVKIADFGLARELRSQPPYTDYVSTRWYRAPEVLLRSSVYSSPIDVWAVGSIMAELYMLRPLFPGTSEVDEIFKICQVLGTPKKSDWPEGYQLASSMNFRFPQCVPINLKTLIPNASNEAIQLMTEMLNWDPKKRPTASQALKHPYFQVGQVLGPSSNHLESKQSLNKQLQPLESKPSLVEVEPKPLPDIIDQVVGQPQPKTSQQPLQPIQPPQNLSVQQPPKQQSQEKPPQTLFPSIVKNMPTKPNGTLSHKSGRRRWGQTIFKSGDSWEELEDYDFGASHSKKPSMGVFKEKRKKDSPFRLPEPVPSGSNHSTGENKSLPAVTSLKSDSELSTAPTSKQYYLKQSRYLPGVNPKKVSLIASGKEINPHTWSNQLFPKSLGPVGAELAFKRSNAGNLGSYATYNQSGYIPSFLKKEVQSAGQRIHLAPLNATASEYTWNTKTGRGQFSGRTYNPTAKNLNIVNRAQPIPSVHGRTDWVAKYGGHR
Chain of PHKG2 (human) (P15735 whole entry, looked up): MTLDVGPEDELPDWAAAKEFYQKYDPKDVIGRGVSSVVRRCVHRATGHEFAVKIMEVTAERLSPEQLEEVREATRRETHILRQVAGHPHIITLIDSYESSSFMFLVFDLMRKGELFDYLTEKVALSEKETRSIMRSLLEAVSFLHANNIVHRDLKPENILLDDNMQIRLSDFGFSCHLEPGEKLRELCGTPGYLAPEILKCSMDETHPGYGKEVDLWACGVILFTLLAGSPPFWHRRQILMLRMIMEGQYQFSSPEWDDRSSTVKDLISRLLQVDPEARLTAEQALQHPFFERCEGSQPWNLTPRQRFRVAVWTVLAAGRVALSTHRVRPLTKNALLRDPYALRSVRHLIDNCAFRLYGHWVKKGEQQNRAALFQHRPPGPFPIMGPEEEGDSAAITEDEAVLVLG
Chain of ERBB2 (human) (P04626 whole entry, looked up): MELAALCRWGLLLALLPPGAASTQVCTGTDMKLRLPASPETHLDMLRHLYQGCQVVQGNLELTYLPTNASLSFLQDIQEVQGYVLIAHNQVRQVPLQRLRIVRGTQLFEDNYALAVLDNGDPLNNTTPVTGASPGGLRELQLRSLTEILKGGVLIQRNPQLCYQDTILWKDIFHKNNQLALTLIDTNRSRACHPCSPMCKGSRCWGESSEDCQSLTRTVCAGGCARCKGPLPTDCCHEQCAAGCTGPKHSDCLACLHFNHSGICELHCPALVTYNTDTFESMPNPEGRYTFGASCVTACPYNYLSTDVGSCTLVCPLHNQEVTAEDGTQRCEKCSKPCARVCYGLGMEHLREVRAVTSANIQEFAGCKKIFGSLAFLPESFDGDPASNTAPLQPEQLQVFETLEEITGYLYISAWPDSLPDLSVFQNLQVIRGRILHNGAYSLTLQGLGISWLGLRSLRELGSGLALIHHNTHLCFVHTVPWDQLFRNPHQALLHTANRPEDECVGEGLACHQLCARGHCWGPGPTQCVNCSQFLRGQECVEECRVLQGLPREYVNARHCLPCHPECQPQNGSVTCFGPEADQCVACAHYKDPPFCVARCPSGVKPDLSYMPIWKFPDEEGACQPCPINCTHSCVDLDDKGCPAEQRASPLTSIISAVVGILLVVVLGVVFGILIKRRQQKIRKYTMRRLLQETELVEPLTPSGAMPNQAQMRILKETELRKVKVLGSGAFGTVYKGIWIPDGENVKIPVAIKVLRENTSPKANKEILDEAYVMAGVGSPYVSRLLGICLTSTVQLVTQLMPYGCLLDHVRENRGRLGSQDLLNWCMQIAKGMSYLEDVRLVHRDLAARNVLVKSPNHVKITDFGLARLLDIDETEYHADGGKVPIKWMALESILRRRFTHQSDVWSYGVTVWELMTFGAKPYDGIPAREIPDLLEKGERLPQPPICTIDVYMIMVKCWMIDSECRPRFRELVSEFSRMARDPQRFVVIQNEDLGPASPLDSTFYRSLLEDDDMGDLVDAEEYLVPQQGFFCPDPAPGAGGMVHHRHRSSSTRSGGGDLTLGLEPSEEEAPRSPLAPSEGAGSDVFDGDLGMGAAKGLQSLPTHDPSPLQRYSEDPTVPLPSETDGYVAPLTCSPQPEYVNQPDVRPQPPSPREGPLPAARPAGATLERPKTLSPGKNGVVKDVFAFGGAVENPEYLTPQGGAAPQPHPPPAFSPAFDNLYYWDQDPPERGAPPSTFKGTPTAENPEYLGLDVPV
Chain of INSR (human) (P06213 whole entry, looked up): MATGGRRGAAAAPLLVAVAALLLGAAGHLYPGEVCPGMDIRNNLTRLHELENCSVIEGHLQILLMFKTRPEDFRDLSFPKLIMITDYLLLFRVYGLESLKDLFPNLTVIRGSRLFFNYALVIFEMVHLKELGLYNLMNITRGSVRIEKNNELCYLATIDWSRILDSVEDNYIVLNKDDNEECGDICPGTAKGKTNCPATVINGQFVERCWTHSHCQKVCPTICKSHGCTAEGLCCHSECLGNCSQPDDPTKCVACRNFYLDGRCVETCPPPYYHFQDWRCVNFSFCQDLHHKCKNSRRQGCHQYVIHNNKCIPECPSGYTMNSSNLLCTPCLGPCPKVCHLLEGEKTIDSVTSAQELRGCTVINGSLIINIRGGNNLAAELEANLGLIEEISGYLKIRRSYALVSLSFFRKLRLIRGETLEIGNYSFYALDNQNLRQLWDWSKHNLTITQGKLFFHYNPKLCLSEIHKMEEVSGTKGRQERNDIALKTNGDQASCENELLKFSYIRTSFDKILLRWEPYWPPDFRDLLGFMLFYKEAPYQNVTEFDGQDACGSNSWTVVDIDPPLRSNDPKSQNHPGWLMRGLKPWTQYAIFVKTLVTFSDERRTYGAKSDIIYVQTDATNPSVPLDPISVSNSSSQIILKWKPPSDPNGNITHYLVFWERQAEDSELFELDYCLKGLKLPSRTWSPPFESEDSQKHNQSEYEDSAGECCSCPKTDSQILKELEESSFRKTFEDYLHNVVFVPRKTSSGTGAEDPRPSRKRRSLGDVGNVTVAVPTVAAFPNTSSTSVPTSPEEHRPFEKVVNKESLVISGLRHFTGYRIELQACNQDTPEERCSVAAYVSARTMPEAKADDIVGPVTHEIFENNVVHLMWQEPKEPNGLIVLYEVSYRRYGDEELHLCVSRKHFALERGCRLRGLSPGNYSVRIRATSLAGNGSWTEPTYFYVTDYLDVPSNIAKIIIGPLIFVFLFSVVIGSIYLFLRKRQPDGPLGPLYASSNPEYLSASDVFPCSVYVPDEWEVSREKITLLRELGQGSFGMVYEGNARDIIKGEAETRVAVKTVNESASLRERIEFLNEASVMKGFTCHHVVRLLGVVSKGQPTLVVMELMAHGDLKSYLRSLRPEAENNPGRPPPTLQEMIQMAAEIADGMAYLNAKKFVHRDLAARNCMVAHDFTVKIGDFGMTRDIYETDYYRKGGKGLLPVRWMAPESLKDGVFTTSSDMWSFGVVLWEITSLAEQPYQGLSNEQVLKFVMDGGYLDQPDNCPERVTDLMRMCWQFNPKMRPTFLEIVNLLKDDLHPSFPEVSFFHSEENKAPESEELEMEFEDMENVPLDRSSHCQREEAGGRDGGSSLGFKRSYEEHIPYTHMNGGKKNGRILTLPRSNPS
Chain of CSNK2A1 (human) (P68400 whole entry, looked up): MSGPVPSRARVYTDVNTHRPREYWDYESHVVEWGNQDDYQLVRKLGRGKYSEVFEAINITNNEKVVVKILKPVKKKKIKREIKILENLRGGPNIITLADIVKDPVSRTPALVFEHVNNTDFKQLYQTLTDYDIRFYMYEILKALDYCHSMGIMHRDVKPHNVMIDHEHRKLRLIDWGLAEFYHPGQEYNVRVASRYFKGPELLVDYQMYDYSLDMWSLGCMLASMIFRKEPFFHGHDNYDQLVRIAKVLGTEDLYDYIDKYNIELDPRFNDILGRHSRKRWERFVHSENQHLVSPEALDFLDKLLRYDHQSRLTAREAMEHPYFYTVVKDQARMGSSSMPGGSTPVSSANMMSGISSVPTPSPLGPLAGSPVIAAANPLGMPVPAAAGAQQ
Chain of MUSK (human) (O15146 whole entry, looked up): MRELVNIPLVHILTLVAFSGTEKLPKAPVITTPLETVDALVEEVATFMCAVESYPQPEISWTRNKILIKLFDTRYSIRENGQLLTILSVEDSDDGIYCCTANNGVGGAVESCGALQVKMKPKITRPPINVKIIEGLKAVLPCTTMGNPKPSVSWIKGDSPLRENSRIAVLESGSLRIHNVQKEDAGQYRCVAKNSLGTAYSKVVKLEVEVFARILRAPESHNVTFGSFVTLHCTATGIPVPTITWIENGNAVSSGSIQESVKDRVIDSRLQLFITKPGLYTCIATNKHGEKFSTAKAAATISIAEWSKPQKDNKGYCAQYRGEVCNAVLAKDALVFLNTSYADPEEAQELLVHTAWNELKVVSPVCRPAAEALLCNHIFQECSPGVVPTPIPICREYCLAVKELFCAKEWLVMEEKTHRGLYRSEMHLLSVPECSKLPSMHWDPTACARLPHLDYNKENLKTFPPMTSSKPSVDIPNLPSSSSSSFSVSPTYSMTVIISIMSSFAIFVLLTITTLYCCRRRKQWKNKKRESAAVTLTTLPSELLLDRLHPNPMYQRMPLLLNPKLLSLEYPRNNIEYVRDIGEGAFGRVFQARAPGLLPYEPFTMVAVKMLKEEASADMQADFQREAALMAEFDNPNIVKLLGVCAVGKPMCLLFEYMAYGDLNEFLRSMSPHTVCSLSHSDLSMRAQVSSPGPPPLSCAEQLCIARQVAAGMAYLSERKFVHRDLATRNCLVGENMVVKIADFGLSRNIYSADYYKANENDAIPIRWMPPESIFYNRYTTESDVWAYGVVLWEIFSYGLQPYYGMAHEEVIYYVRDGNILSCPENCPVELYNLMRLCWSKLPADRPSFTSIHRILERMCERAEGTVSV

**Q.** With `Cn1c2ccccc2c2c3c(c4c5ccccc5n(CCC#N)c4c21)CNC3=O` as the compound, how does the kinase still bound, per cent of control (AKT2 (human)) read?
**A.** Its kinase still bound, per cent of control is 95%.

**Q.** And the kinase still bound, per cent of control (CAMK4 (human))?
**A.** The kinase still bound, per cent of control was 100%.

**Q.** And the kinase still bound, per cent of control (CDKL5 (human))?
**A.** The kinase still bound, per cent of control was 10%.

**Q.** And the kinase still bound, per cent of control (CHEK1 (human))?
**A.** Its kinase still bound, per cent of control is 0.2%.

**Q.** And the kinase still bound, per cent of control (CSNK2A1 (human))?
**A.** The kinase still bound, per cent of control was 80%.

**Q.** What about the kinase still bound, per cent of control (DSTYK (human)) of the same compound?
**A.** Its kinase still bound, per cent of control is 2%.

**Q.** What about the kinase still bound, per cent of control (EPHA3 (human)) of the same compound?
**A.** The kinase still bound, per cent of control was 53%.

**Q.** And the kinase still bound, per cent of control (EPHA4 (human))?
**A.** The kinase still bound, per cent of control was 97%.

**Q.** What about the kinase still bound, per cent of control (ERBB2 (human)) of the same compound?
**A.** Its kinase still bound, per cent of control is 87%.

**Q.** What about the kinase still bound, per cent of control (ERBB3 (human)) of the same compound?
**A.** The kinase still bound, per cent of control was 94%.

**Q.** And the kinase still bound, per cent of control (FGFR1 (human))?
**A.** Its kinase still bound, per cent of control is 74%.

**Q.** What about the kinase still bound, per cent of control (FGR (human)) of the same compound?
**A.** The kinase still bound, per cent of control was 84%.

**Q.** What about the kinase still bound, per cent of control [1] of the same compound?
**A.** Its kinase still bound, per cent of control is 0.2%.

**Q.** What about the kinase still bound, per cent of control [2] of the same compound?
**A.** Its kinase still bound, per cent of control is 0%.

**Q.** What about the kinase still bound, per cent of control (INSR (human)) of the same compound?
**A.** The kinase still bound, per cent of control was 84%.

**Q.** What about the kinase still bound, per cent of control (MAK (human)) of the same compound?
**A.** The kinase still bound, per cent of control was 100%.

**Q.** And the kinase still bound, per cent of control (MAP3K11 (human))?
**A.** The kinase still bound, per cent of control was 17%.

**Q.** And the kinase still bound, per cent of control (MAP3K9 (human))?
**A.** Its kinase still bound, per cent of control is 0.65%.

**Q.** And the kinase still bound, per cent of control (MAP4K3 (human))?
**A.** The kinase still bound, per cent of control was 6%.

**Q.** What about the kinase still bound, per cent of control (MAPK9 (human)) of the same compound?
**A.** Its kinase still bound, per cent of control is 46%.

**Q.** And the kinase still bound, per cent of control (MARK2 (human))?
**A.** The kinase still bound, per cent of control was 9.8%.

**Q.** And the kinase still bound, per cent of control (MATK (human))?
**A.** The kinase still bound, per cent of control was 67%.

**Q.** And the kinase still bound, per cent of control (MINK1 (human))?
**A.** The kinase still bound, per cent of control was 1%.

**Q.** And the kinase still bound, per cent of control (MST4 (human))?
**A.** Its kinase still bound, per cent of control is 100%.

**Q.** What about the kinase still bound, per cent of control (MUSK (human)) of the same compound?
**A.** The kinase still bound, per cent of control was 100%.

**Q.** And the kinase still bound, per cent of control (NEK7 (human))?
**A.** The kinase still bound, per cent of control was 100%.

**Q.** What about the kinase still bound, per cent of control (PAK3 (human)) of the same compound?
**A.** Its kinase still bound, per cent of control is 70%.

**Q.** What about the kinase still bound, per cent of control (PAK4 (human)) of the same compound?
**A.** The kinase still bound, per cent of control was 4%.

**Q.** What about the kinase still bound, per cent of control (PAK7 (human)) of the same compound?
**A.** Its kinase still bound, per cent of control is 3.4%.

**Q.** What about the kinase still bound, per cent of control (PHKG1 (human)) of the same compound?
**A.** Its kinase still bound, per cent of control is 0.1%.

**Q.** What about the kinase still bound, per cent of control (PHKG2 (human)) of the same compound?
**A.** The kinase still bound, per cent of control was 4.4%.

**Q.** And the kinase still bound, per cent of control (PTK2B (human))?
**A.** Its kinase still bound, per cent of control is 19%.

**Q.** What about the kinase still bound, per cent of control [3] of the same compound?
**A.** The kinase still bound, per cent of control was 0%.

**Q.** What about the kinase still bound, per cent of control (RPS6KA1 KD2 (human)) of the same compound?
**A.** Its kinase still bound, per cent of control is 88%.

**Q.** What about the kinase still bound, per cent of control (SLK (human)) of the same compound?
**A.** Its kinase still bound, per cent of control is 69%.

**Q.** And the kinase still bound, per cent of control (SRMS (human))?
**A.** Its kinase still bound, per cent of control is 100%.

**Q.** And the kinase still bound, per cent of control (SRPK1 (human))?
**A.** Its kinase still bound, per cent of control is 5.6%.

**Q.** What about the kinase still bound, per cent of control (SRPK3 (human)) of the same compound?
**A.** Its kinase still bound, per cent of control is 3.8%.

**Q.** What about the kinase still bound, per cent of control (STK38 (human)) of the same compound?
**A.** Its kinase still bound, per cent of control is 100%.

**Q.** What about the kinase still bound, per cent of control (STK38L (human)) of the same compound?
**A.** The kinase still bound, per cent of control was 66%.

**Q.** And the kinase still bound, per cent of control (STK39 (human))?
**A.** The kinase still bound, per cent of control was 76%.

**Q.** And the kinase still bound, per cent of control (TAOK3 (human))?
**A.** The kinase still bound, per cent of control was 12%.

Reference: the kinase profiling compilation of Christmann-Franck et al. (2016)
